Laboratory results from PubChem BioAssay (NCI).
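Growth conditions: 96-well plates. Treatment: test compound, 48 hours, 5 concentrations. Analysis: linear interpolation between bracketing concentrations; unreached endpoints set to highest concentration. TGI: concentration producing complete growth inhibition.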

Legend:
Test in all cases: NCI-60 cell line screen, 48 h
[1] = system: IGROV1 ovarian
[2] = system: OVCAR-4 ovarian
[3] = system: HCT-15 colon
[4] = system: HOP-18 NSCLC
[5] = system: SNB-19 CNS
[6] = system: OVCAR-5 ovarian
[7] = system: M14 melanoma
[8] = system: NCI-H460 lung
[9] = system: SK-OV-3 ovarian
[10] = system: SN12C renal
[11] = system: OVCAR-8 ovarian
[12] = system: SR leukemia
[13] = system: HT29 colon
[14] = system: EKVX NSCLC
[15] = system: M19-MEL melanoma
[16] = system: A549 NSCLC
[17] = system: KM12 colon
[18] = system: HCT-116 colon
[19] = system: NCI-H522 lung
[20] = system: UACC-257 melanoma
[21] = system: UO-31 renal
[22] = system: SNB-78 CNS
[23] = system: SK-MEL-2 melanoma
[24] = system: LXFL 529 NSCLC
[25] = system: K-562 leukemia
[26] = system: SNB-75 CNS
[27] = system: DMS 114 small cell lung
[28] = system: COLO 205 colon
[29] = system: XF 498 CNS
[30] = system: RPMI-8226 leukemia
[31] = system: KM20L2 colon
[32] = system: DMS 273 small cell lung
[33] = system: SK-MEL-28 melanoma
[34] = system: UACC-62 melanoma
[35] = system: CAKI-1 renal
[36] = system: A498 renal
[37] = system: SF-268 CNS
[38] = system: U251 CNS
[39] = system: CCRF-CEM leukemia
[40] = system: LOX IMVI melanoma
[41] = system: ACHN renal
[42] = system: DLD-1 colon
[43] = system: RXF 393 renal
[44] = system: HL-60(TB) leukemia
[45] = system: 786-0 renal
[46] = system: NCI-H226 lung
[47] = system: SK-MEL-5 melanoma
[48] = system: SF-295 CNS
[49] = system: HOP-92 NSCLC
[50] = system: MALME-3M melanoma
[51] = system: RXF-631 renal
[52] = system: SW-620 colon
[53] = system: TK-10 renal
[54] = system: HCC-2998 colon
[55] = system: SF-539 CNS
[56] = system: OVCAR-3 ovarian
[57] = system: MOLT-4 leukemia
[58] = system: NCI-H23 lung
[59] = system: HOP-62 NSCLC

SMILES: CCOc1ccc(Nc2nc(C)c(C(=O)/C=C/c3ccc(Cl)cc3Cl)s2)cc1
- TGI [1]: 85.1 µM
- TGI [2]: 28.7 µM
- TGI [3]: 48.6 µM
- TGI [4]: 66.7 µM
- TGI [5]: > 100 µM
- TGI [6]: > 100 µM
- TGI [7]: 50.1 µM
- TGI [8]: 42.6 µM
- TGI [9]: 54.3 µM
- TGI [10]: 37.1 µM
- TGI [11]: 40.7 µM
- TGI [12]: 71.2 µM
- TGI [13]: 39.4 µM
- TGI [14]: 85.7 µM
- TGI [15]: 47.4 µM
- TGI [16]: 45.9 µM
- TGI [17]: 33.5 µM
- TGI [18]: 38.3 µM
- TGI [19]: 43.2 µM
- TGI [20]: 53.8 µM
- TGI [21]: 51 µM
- TGI [22]: 67.9 µM
- TGI [23]: 61.6 µM
- TGI [24]: 37.5 µM
- TGI [25]: 93.5 µM
- TGI [26]: 39.3 µM
- TGI [27]: 56.5 µM
- TGI [28]: 32.3 µM
- TGI [29]: 39.1 µM
- TGI [30]: > 100 µM
- TGI [31]: 52.2 µM
- TGI [32]: 45 µM
- TGI [33]: 51 µM
- TGI [34]: 77.4 µM
- TGI [35]: 55.4 µM
- TGI [36]: 50.5 µM
- TGI [37]: 77.3 µM
- TGI [38]: 37.9 µM
- TGI [39]: 80.2 µM
- TGI [40]: 31.8 µM
- TGI [41]: 71 µM
- TGI [42]: 84.5 µM
- TGI [43]: 40.6 µM
- TGI [44]: 65.6 µM
- TGI [45]: 36.3 µM
- TGI [46]: 36.9 µM
- TGI [47]: 38.8 µM
- TGI [48]: 38.5 µM
- TGI [49]: 68.3 µM
- TGI [50]: 62.7 µM
- TGI [51]: 54.8 µM
- TGI [52]: 38.7 µM
- TGI [53]: 52.6 µM
- TGI [54]: 43.9 µM
- TGI [55]: 78.8 µM
- TGI [56]: 41 µM
- TGI [57]: 51.5 µM
- TGI [58]: 44.1 µM
- TGI [59]: 81.3 µM
